Source: patent US7053122B2, “Therapeutic use of aryl amino acid derivatives” (Pfizer Inc, priority 2002, dated 2006)

system: α2δ subunit derived from porcine brain tissue; test: radioligand binding assay using [3H]gabapentin and the α2δ subunit; conditions: [3H]gabapentin radioligand
From the text: The biological activity of the compounds of the invention may be measured in a radioligand binding assay using [^3H]gabapentin and the α2δ subunit derived from porcine brain tissue (Gee N. S., Brown J. P., Dissanayake V. U. K., Offord J., Thurlow R., Woodruff G. N., J. Biol. Chem., 1996; 271:5776–5879). Results may be expressed in terms of μM or nM α2δ binding affinity.

Row | SMILES | α2δ binding affinity
1 | Cl.NCc1cccc(Cl)c1C(=O)O [Example 4, 2-Aminomethyl-6-chloro-benzoic acid hydrochloride salt] | 383 nM
2 | Cl.NCc1ccc(Cl)cc1C(=O)O [Example 1, 2-Aminomethyl-5-chloro-benzoic acid hydrochloride salt] | 100 nM
3 | Cl.NCc1cc(Cl)c(Cl)cc1C(=O)O [Example 2, 2-Aminomethyl-4,5-dichloro-benzoic acid hydrochloride salt] | 435 nM

Now from value to molecule:

Row | α2δ binding affinity | SMILES
4 | 8000 nM | Cl.NCc1ccc(Cl)cc1-c1noc(=O)[nH]1 [Example 7, 3-(2-Aminomethyl-5-chloro-phenyl)-4-H-[1,2,4]loxadiazol-5-one hydrochloride salt]
5 | 270 nM | CC(N)c1ccccc1C(=O)O.Cl (centres unmarked) [Example 5, 2-(1-Amino-ethyl)-benzoic acid hydrochlorid salt]
